# Reference: ChEMBL document CHEMBL1135345, “Design and characterization of non-phosphopeptide inhibitors for Src family SH2 domains” (Bioorg Med Chem Lett, 2002)
# Where a SMILES comes first, the peptide text is derived from it. [ ]: non-standard residue; d: D form. The star is where a group is joined. pY = N[C@@H](Cc1ccc(OP(=O)(O)O)cc1)C(=O)O; Dopa = N[C@@H](Cc1ccc(O)c(O)c1)C(=O)O; Caffeoyl = O=C(/C=C/c1ccc(O)c(O)c1)*; X1 = O=C(Cc1cc(=O)oc2cc(O)ccc12)*
# How the values were obtained:
# [1] = target: Proto-oncogene tyrosine-protein kinase Src (Homo sapiens, UniProt P12931); test: Affinity for GST- Src-SH2 domain in ELISA
# [2] = target: Tyrosine-protein kinase Lck (Homo sapiens, UniProt P06239); test: Affinity for GST-Lck-SH2 domain in ELISA
# [3] = target: Tyrosine-protein kinase Fyn (Homo sapiens, UniProt P06241); test: Affinity for GST-Fyn-SH2 domain in ELISA
# Tyrosine-protein kinase Fyn, sequence (P06241 whole entry, the tested form may be a part): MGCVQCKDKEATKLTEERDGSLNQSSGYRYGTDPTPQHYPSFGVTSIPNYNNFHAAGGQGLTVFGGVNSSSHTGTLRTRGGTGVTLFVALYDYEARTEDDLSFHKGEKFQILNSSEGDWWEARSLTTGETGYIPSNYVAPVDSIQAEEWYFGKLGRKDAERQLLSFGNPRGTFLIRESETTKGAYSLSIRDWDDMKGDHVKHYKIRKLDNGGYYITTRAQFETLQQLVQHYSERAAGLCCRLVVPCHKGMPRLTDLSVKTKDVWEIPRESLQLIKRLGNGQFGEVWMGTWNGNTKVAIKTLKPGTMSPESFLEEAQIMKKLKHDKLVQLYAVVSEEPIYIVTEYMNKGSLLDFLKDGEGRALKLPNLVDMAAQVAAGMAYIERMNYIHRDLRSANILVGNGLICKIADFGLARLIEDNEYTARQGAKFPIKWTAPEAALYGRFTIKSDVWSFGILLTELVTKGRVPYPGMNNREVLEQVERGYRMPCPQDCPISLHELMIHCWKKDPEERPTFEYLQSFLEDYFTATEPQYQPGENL
# Tyrosine-protein kinase Lck, sequence (P06239 whole entry, the tested form may be a part): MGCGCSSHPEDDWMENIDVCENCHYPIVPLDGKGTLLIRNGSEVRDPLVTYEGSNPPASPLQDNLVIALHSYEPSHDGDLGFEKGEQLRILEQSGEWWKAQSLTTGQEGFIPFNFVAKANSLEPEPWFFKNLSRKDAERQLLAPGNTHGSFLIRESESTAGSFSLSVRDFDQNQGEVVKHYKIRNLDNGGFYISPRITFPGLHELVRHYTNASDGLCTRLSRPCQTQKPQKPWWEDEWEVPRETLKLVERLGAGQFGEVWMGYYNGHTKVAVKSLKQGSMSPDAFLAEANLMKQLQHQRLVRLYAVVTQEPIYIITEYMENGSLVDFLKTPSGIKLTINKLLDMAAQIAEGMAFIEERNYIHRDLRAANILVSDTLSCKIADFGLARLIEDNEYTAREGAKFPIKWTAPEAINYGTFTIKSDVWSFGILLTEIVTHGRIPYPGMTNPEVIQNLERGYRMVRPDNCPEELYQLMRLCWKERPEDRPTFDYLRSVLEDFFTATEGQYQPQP
# Proto-oncogene tyrosine-protein kinase Src, sequence (P12931 2-536 limits assumed): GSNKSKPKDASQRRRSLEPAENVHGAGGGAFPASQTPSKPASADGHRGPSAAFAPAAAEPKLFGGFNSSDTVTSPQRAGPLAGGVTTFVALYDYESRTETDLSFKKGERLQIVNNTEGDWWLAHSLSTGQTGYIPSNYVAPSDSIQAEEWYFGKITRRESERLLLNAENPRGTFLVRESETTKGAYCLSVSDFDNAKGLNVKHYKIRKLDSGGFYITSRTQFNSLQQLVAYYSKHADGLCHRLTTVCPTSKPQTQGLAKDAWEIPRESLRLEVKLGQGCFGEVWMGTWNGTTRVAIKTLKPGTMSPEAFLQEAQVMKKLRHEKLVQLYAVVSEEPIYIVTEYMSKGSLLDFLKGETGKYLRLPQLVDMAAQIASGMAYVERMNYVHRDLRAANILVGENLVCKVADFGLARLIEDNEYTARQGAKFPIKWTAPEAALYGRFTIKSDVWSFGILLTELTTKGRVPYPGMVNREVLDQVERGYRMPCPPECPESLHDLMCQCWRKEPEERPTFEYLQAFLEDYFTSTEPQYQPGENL
Compound,IC50 [1],IC50 [2],IC50 [3]
Ac-YEEIE-OH,> 200 µM,> 200 µM,> 200 µM
CC[C@H](C)[C@H](NC(=O)[C@H](CCC(=O)O)NC(=O)[C@H](CCC(=O)O)NC(=O)[C@H](Cc1ccc(OP(=O)(O)O)cc1)NC(=O)/C=C/c1ccc(O)c(O)c1)C(=O)N[C@@H](CCC(=O)O)C(=O)O (Caffeoyl-[pY]EEIE-OH),0.064 µM,0.042 µM,0.084 µM
CC[C@H](C)[C@H](NC(=O)[C@H](CCC(=O)O)NC(=O)[C@H](CCC(=O)O)NC(=O)[C@H](Cc1ccc(O)c(O)c1)NC(=O)Cc1cc(=O)oc2cc(O)ccc12)C(=O)N[C@@H](CCC(=O)O)C(=O)O (X1-[Dopa]EEIE-OH),65 µM,58 µM,77 µM
CC(=O)N[C@@H](Cc1ccc(O)c(O)c1)C(=O)N[C@@H](CCC(=O)O)C(=O)N[C@@H](CCC(=O)O)C(=O)N[C@@H](CCC(=O)O)C(=O)O (Ac-[Dopa]EEE-OH),160 µM,120 µM,> 200 µM

# The next lines start with the values.
IC50 [1],IC50 [2],IC50 [3],Compound
55 µM,18 µM,33 µM,CC[C@H](C)[C@H](NC(=O)[C@H](CCC(=O)O)NC(=O)[C@H](CCC(=O)O)NC(=O)[C@H](Cc1ccc(O)c(O)c1)NC(=O)/C=C/c1ccc(O)c(O)c1)C(=O)N[C@@H](CCC(=O)O)C(=O)O (Caffeoyl-[Dopa]EEIE-OH)
0.09 µM,0.081 µM,0.1 µM,CC[C@H](C)[C@H](NC(=O)[C@H](CCC(=O)O)NC(=O)[C@H](CCC(=O)O)NC(=O)[C@H](Cc1ccc(OP(=O)(O)O)cc1)NC(=O)Cc1cc(=O)oc2cc(O)ccc12)C(=O)N[C@@H](CCC(=O)O)C(=O)O (X1-[pY]EEIE-OH)
7 µM,3.8 µM,11 µM,Ac-YAEIE-OH
54 µM,27 µM,45 µM,CC[C@H](C)[C@H](NC(=O)[C@H](CCC(=O)O)NC(=O)[C@H](CCC(=O)O)NC(=O)[C@H](Cc1ccc(O)cc1)NC(=O)/C=C/c1ccc(O)c(O)c1)C(=O)N[C@@H](CCC(=O)O)C(=O)O (Caffeoyl-YEEIE-OH)
,1.3 µM,1.1 µM,CC[C@H](C)[C@H](NC(=O)[C@H](CCC(=O)O)NC(=O)[C@H](CCC(=O)O)NC(=O)[C@H](Cc1ccc(OP(=O)(O)O)cc1)NC(C)=O)C(=O)N[C@@H](CCC(=O)O)C(=O)O (Ac-[pY]EEIE-OH)
